According to US5370861A, “Iodinated esters contrast medium and use” (Nycomed Imaging AS, priority 1989, dated 1994):

Experiments:
hepatocytes = conditions: in vivo, iv; cited from earlier work
liver = assay: CT studies in rabbit: contrast enhancement in the liver; format: in vivo, rabbits; conditions: dynamic CT, iohexol 350 mg I/ml
Procedure: Contrast enhancement in the liver was investigated in rabbits. Anaesthetized animals were placed in a Siemens CT scanner and injected with particles of Pharmaceutical Formulation 4 in the marginal ear vein. Particle concentration was 28 mg/ml. A particle dose corresponding to 75 mg I/kg gave an increase in liver contrast from a basal level of […] to about 120 HU. Thus, the contrast enhancement on this dose level was about 35-40 HU. […] The average iodine content in these livers was 1.1 mg I/g liver. […] About 8 times more iodine had to be injected in these animals to achieve the same contrast enhancement of the liver. With this vascular contrast medium, the enhancement was transient, lasting for one or two minutes.

[1] = In vitro biodegradation: hydrolysis with release of Isopaque in Seronorm, pH 7.4, 37° C (HPLC); format: in vitro ADME; conditions: seronorm serum, Seronorm (0.5 mg/ml), read-out: substance hydrolysed after 6 hours in Seronorm
Procedure: The following Examples are given by way of illustration only. Seronorm is a test serum available from Nycomed AS, Oslo, Norway.
(§1) The powdered product of Example 1 was suspended in Seronorm (0.5 mgml) at pH 7.4 and agitated at 37° C. As a control the experiment was also performed in phosphate buffered saline (PBS) at pH 7.4. At different time points samples were taken from the supernatant after centrifugation of the vial (4000 rpm, 10 rain). The release of Isopaque (5-(N-acetylamino)-3-(N-acetyl-N-methylamino)-2,4,6-triiodobenzene carboxylic acid) was analysed by HPLC. After 6 hours 100% of the substance was hydrolysed. In PBS only 1.1% was hydrolysed during the same period.

[2] = In vitro biodegradation control: hydrolysis in phosphate buffered saline (PBS), pH 7.4; format: physicochemical; conditions: read-out: substance hydrolysed in PBS
Procedure: as §1

**Q.** With `CCOC(=O)c1c(I)cc(I)c(NC(=O)CCCCC(=O)Nc2c(I)cc(I)c(C(=O)OCC)c2I)c1I` [ethyl ester of iodipamide, ethyl ester of the water soluble X-ray contrast agent, iodipamide] as the compound, how does the “lipid vacuoles in the hepatocytes” value (hepatocytes) read?
**A.** Its value is “increase in lipid vacuoles in the hepatocytes”.

**Q.** With `CC(=O)N(CC(O)CO)c1c(I)c(C(=O)NCC(O)CO)c(I)c(C(=O)NCC(O)CO)c1I` (stereo not drawn) [iohexol] as the compound, how does the duration of enhancement (liver) read?
**A.** The duration of enhancement was “one or two”.

**Q.** What about the “iodine to be injected to achieve the same contrast enhancement of the liver, relative to Pharmaceutical Formulation 4” value (liver) of the same compound?
**A.** Its value is “About 8 times”.

**Q.** And the “nature of enhancement with vascular contrast medium” value (liver)?
**A.** The value was “transient”.

**Q.** Which results are given for `CCOC(=O)OC(C)OC(=O)c1c(I)c(NC(C)=O)c(I)c(N(C)C(C)=O)c1I` (stereo not drawn) [Example 1, 1-(Ethyloxycarbonyloxy)ethyl 5-(N-acetylamino)-3-(N-acetyl-N-methylamino)-2,4,6-triiodobenzenecarboxylate]?
**A.** metabolised at 6 h [1]: 100%; degraded at 6 h [2]: 1.1%
